Where two headings read alike, the source gives them in different places.
How the values were obtained:
C3H10T1/2 cells = assay: Osteoblast differentiation in presence of low or high SAG; assay type: cell-based, mouse; conditions: low and high concentration of SMO agonist SAG
Method: cilia were stained with an antibody against acetylated tubulin. SMO was marked with an anti-SMO antibody and DAPI was used to stain the nuclei. For quantification of cilia, at least 100 cilia per condition and biological replicate were analyzed for the intensity of anti-acetylated tubulin antibody staining. The results of one representative biological replicate are shown and each data point represents the intensity value of one single cilium. Statistical significance was evaluated using an unpaired t-test with a confidence interval of 95 % (p ≤ n.s.). (d and e) Influence Vismodegib (d) or GANT61 (e) on osteoblast diffe rentation of C3H10T1/2 cells in presence of low (0.1 µM) or high (1 µM) concentration of the SMO agonist SAG. Data are mean values of three independent biological replicates (n= 3) ± SD. (f) Fluorescent polarization measurements were performed by titrating 1 μM TAMRA-GDP-bound RAC1 with increasing […]
µM Rhonin. Data are mean values (n = 3) ± SD. (g) Structure of the lysine-reactive probe […]
(§1) (1 picture or pasted object on this page, not shown here)

RHOGDI1 [1] = target: T1, RHOGDI1 (Homo sapiens, UniProt P52565); assay: Fluorescence polarization binding of probe 10; conditions: fluorescence polarization; read-out: KD (RHOGDI1Δ15)
T1 construct: GST; made in house; host or cells: E. coli (XL1-Blue / BL21)
Method: (§2) Fluorescence polarization
(§3) The binding of probe 10 to RHOGDI1-3 was confirmed by fluorescence polarization experiments. RHOGDI1 was titrated against 0.5 µM of the fluorescent Rhonin derivative 10 in buffer containing 20 mM Hepes, pH 7.4, 150 mM NaCl, 5 mM MgCl2, 3 mM DTT and incubated for 1 h. The change in fluorescence polarization was monitored at an excitation / emission wavelengths of 535 nm and 593 nm, respectively. […]
(§4) Protein expression and purification
(§5) RHOGDI1 delta15, RHOGDI1 delta25, RHOGDI1-3 were produced in E. coli (XL1-Blue) as a GST recombinant protein as described previously.[9] In summary, protein were expressed in E.coli BL21 upon addition of IPTG overnight. Cell were collected and lysed in a lysis buffer, containing 30 mM Tris-NaOH pH 7.4, 150 mM NaCl, 1 mM DTT, and 5 mM MgCl2. Cells were further lysed using sonication. After centrifugation (20 min at 20,000 g) of lysate, the clear supernatant was used for purification in an ÄKTAprime system connected to a GSH column […]
(§6) Insect cell purification system was used for expression and purification of prenylated proteins based on an established protocol.[9] Sf9/or TNAO38 insect cells (Sf9 used only for virus generation and amplification) were grown to the level of 1.5×10^6 cells/ml before they were transduced with Baculoviruses encoding genes related to the RHO GTPases. Cells were resuspended in lysis buffer, containing 20 mM HEPES-NaOH pH 7.4, 150 mM NaCl, 2 mM β-mercaptoethanol, 5 mM MgCl2, 0.1 mM GDP, 10 mM imidazole and the optimized detergents including 1% CHAPS and 0.5% sodium cholate .[9] Cells were lysed by s onication in ice. After
T1 sequence (P52565 16-204): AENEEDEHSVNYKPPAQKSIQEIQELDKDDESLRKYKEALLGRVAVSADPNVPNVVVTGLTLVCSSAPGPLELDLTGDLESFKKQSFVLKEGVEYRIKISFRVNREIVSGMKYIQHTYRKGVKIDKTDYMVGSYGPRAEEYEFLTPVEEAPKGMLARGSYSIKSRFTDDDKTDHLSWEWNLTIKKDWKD

RHOGDI1 [2] = target: T2, RHOGDI1 (Homo sapiens, UniProt P52565); assay: Fluorescence polarization binding of probe 10; conditions: fluorescence polarization; read-out: KD (RHOGDI1Δ25)
T2 construct: GST; made in house; host or cells: E. coli (XL1-Blue / BL21)
Method: as §2, §3, §4, §5, §6
T2 sequence (P52565 26-204): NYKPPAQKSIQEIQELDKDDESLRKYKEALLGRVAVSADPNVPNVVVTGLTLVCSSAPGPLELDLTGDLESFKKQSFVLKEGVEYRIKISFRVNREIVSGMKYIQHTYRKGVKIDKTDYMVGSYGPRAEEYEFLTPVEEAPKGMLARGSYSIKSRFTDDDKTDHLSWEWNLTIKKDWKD

RHOGDI1 [3] = target: RHOGDI1 (Homo sapiens, UniProt P52565); assay: Fluorescence polarization binding of probe 10; conditions: range from Figure 4e; read-out: KD, measured affinity between probe 10 and RHOGDI1
Method: as §2, §3, §4, §5, §6
Target sequence in this assay (P52565 2-204): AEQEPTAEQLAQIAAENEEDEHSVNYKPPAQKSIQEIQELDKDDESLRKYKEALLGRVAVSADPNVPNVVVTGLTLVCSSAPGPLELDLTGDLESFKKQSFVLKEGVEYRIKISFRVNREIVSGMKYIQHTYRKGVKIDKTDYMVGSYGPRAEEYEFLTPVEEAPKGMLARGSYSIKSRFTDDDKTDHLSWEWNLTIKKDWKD

RHOGDI2 = target: T3, RHOGDI2 (Homo sapiens, UniProt P52566); assay: Fluorescence polarization binding of probe 10
T3 construct: GST; made in house; host or cells: E. coli (XL1-Blue / BL21)
T3 sequence (P52566 whole entry, species assumed): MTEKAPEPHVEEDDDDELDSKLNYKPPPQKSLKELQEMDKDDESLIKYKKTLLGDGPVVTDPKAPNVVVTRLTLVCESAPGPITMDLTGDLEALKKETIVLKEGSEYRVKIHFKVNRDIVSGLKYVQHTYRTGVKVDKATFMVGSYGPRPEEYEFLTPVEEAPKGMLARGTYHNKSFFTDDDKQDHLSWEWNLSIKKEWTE
Method: as §2, §3, §4, §5, §6

RHOGDI3 = target: T4, RHOGDI3 (Homo sapiens, UniProt Q99819); assay: Fluorescence polarization binding of probe 10
T4 construct: GST; made in house; host or cells: E. coli (XL1-Blue / BL21)
T4 sequence (Q99819 whole entry, species assumed): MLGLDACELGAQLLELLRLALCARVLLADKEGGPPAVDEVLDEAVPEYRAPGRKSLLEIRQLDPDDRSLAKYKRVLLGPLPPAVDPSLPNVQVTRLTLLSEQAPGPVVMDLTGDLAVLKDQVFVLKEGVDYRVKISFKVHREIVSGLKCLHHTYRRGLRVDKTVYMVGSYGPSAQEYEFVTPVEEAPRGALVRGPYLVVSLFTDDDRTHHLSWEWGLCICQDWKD
Method: as §2, §3, §4, §5, §6

PDEδ = target: T5, PDEδ (Homo sapiens, UniProt O43924); assay: Fluorescence polarization, direct binding of probe 10; conditions: 10 nM probe 10, titration of PDEδ
T5 construct: GST (N); made in house; host or cells: E. coli Rosetta 2
T5 sequence (O43924 whole entry): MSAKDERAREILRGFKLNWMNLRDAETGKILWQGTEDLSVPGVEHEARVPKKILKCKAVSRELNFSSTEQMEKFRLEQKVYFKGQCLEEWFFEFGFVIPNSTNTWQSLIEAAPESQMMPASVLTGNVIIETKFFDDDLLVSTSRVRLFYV
Method: RHOGDI1 displaced liposome -bound RAC1 from the surface of L1 chip with a koff of 0.016 […]
bound RAC1. Calculated rate constants by mono-exponential fitting of RU decays were 0.02 and 0.032 s-1 for RHOGDI1-mediated RAC1 displacement from the liposomes in the presence of 7a and 7d, respectively. (d) Competition-based fluorescence polarization experiments were performed by titration of 7a against 10 nM fluorescein-labelled atorvastatin and GST-PDEδ.
(e) Fluorescence polarization experiment using 10 nM probe 10 and titration of PDEδ.
as §1
Label-free quantification (LFQ) intensities were logarithmized (log2) and proteins, which were not three times quantified in at least one of the groups, were filtered off. […]
as §2
The binding of probe 10 to RHOGDI1-3 was confirmed by fluorescence polarization experiments. […] The change in fluorescence polarization was monitored at an excitation / emission wavelengths of 535 nm and 593 nm, respectively. […]
To determine the effect of 7a on the binding of RHOGDI1 to non-prenylated RAC1-GDP, fluorescence polarization measurements were performed by titrating 1 µM TAMRA-GDP-bound RAC1 with increasing concentrations of RHOGDI1 in the presence and absence of 50 µM 7a in buffer containing 30 mM Tris-HCl, pH 7.5, 150 mM NaCl, 5 mM MgCl2, 1% DMSO. […]

NIH/3T3 lysate proteins [4] = target: T6, NIH/3T3 lysate proteins (Mus musculus, UniProt Q99PT1); assay: Affinity chromatography (pulldown) with immobilized probes, HRMS label-free quantification and immunoblotting; assay type: binding; conditions: fold excess enriched with active probe 8 vs inactive probe 9
T6 construct: endogenous in cells; host or cells: NIH/3T3
T6 sequence (Q99PT1 2-204): as the sequence (P52565 2-204) above, with V70I, G73R, S80T, V161M, S175N, D200E counted along it
Method: (§7) Supplementary Table S8. List of proteins enriched by the active probe 8 as identified by means of affinity chromatography. […]
(§8) on NHS ester magnetic beads. NIH/3T3 lysate was passed on to the probes and target protein identification was performed employing HRMS analysis as described in the methods section.
(§9) The ratios indicate the fold excess of protein enriched with the active probe 8 as compared to […]
(§10) Apart from filamin –B and –C and RHOGDI1, all enriched proteins were known frequent binders in pulldown assays.
(§11) Protein name Gene symbol Ratio
(§12) RHO GDP-dissociation inhibitor 1 Arhgdia 33
(§13) Guanine nucleotide -binding protein subunit beta -2-like
(§14) 1;Guanine nucleotide -binding protein subunit beta -2-like 1, N- Gnb2l1 6 […]
(§15) ATPase inhibitor, mitochondrial Atpif1 4
(§16) Hsc70-interacting protein St13 4
(§17) Tropomyosin alpha -4 chain Tpm4 4
(§18) Ribosome-recycling factor, mitochondrial Mrrf 3
(§19) (1 picture or pasted object on this page, not shown here) […]
(§20) intensities was performed by densitometry of scanned signals with the aid of image studio software (Version 4.0.21, LI-COR Biosciences, ©2014). […]
(§21) Cell lysate preparation for chemical proteomics
(§22) NIH/3T3 cells were grown to 90-95% confluence and were then detached using cell dissociation solution for 5 min at 37 °C and 5% CO2. Cells were suspended in cell culture medium and pelleted by centrifugation at 250 x g, 5 min at 4 °C. Cell pellets were then washed thrice with ice-cold PBS and lysed in lysis buffer containing 50 mM PIPES, 50 mM NaCl, 5 mM MgCl2, 5 mM EGTA, 0.1 % NP40, 0.1 % Triton X-100, 0.1 % Tween®20, with freshly added 1 mM DTT, EDTA-free protease inhibitors (Complete EDTA-free, Roche) and phosphatase inhibitors (PhosphoSTOP, Roche). To assure complete cell lysis, the suspension was passed through […] cannula 10 times each and incubated on ice for 40 min with intermittent vortexing every five minutes until a homogeneous mixture was obtained.
(§23) The resulting homogenate was centrifuged at 18,000 x g for 30 min at 4 °C and the supernatant was subsequently snap frozen in liquid nitrogen and stored at -80 °C. Total protein content was determined by DC protein assay (Bio-Rad, Germany).
(§24) Affinity chromatography enrichment of compound-bound proteins
(§25) 25 µL N-hydroxysuccinimide magnetic beads (GE Healthcare) were activated with 500 µL 1 mM HCl for 1 min. HCl was replaced by 500 µL coupling buffer (0.15 M triethanolamine, […]
(§26) incubated for 2 h at room temperature with overhead rotation. The residual active groups of N-hydroxysuccinimide magnetic were quenched by alternating incubation with 500 µL block A buffer (0.5 M ethanolamine, 0.5 M NaCl, pH 8.3) and block B buffer (0.1 M sodium acetate, 0.5 M NaCl, pH 4.0) for 5 min three times each. For protein binding, the magnetic beads were equilibrated with 500 µL lysis buffer followed by incubation with 500 µL lysate (protein concentration: 2 mg/mL) 2 h at 4 °C with overhead rotation. In order to wash out non-specifically bound proteins, the beads were first washed with 500 µL lysis buffer containing 25 mM MgCl2 followed by three times washing with 500 µL PBS. Tryptic digestion of bead-bound proteins was carried out in two stages. First, bound proteins were reduced by incubating the beads with 50 µL reducing buffer (1 mM DTT, 8 M urea in 50 mM Tris (pH 7.5)) at 30 °C for 30 min with shaking. Later, the reduced proteins were alkylated by addition of 5.5 µL alkylating solution (1 mM DTT, 50 mM chloroacetamide, 8 M urea in 50 mM Tris pH 7.5) and further incubation in the dark at 30 °C for 30 min while shaking at 350 rpm. The reduced and alkylated proteins were digested by adding 1 µg LysC at 37 °C for 1 h while shaking at 350 rpm. The supernatant was transferred to a new tube and the beads were further incubated with 50 mM Tris-HCl (pH 7.5) containing 1 µg trypsin at 37 °C for 1 h while shaking at 350 rpm.
(§27) Both supernatants were combined together and further digested by adding 2 µg trypsin for 16 h at 37 °C with continuous shaking. The enzymatic digestion was stopped by addition of 2 µL […]

NIH/3T3 lysate proteins [5] = assay: as above; assay type: binding
Method: as §7, §8, §9, §10, §11, §12, §13, §14, §15, §16, §17, §18, §19, §20, §21, §22, §23, §24, §25, §26, §27

[6] = fold excess enriched with active probe 8 vs inactive probe 9

CS(=O)(=O)c1ccc(C(=O)Nc2ccc(Cl)c(-c3ccccn3)c2)c(Cl)c1 [Vismodegib]
Potency in osteogenesis in presence of 0.1 μM vs 1 μM SAG (in words) (C3H10T1/2 cells): decreased potency

COC(=O)C1(C(CC(=O)c2ccccc2)c2ccc(C(=O)NCCOCCOCCNC(=O)CCc3ccc4n3[B-](F)(F)[N+]3=C(c5ccc[nH]5)C=CC3=C4)cc2)N=C(c2ccc(Br)cc2)C2C(=O)N(C)C(=O)C21 (centres unmarked) [compound 10]
Kd (RHOGDI1 [1]): 8.51 µM
Kd (RHOGDI1 [2]): 3.09 µM
Kd (RHOGDI1 [3]): 3.1 to 8.5 µM
Kd (RHOGDI2): 9.08 µM
Kd (RHOGDI3): 11.5 µM
Binding of probe to PDEδ (in words) (PDEδ): binds to PDEδ only at higher concentrations

COC(=O)C1(C(CC(=O)c2ccccc2)c2ccc(C(=O)NCCOCCOCCN)cc2)N=C(c2ccc(Br)cc2)C2C(=O)N(C)C(=O)C21 (centres unmarked) [compound 8]
Ratio, RHO GDP-dissociation inhibitor 1 (Arhgdia) (NIH/3T3 lysate proteins [4]): 33
Ratio, 60S ribosomal protein L32 (Rpl32) (NIH/3T3 lysate proteins [5]; [6]): 9
Ratio, ATPase inhibitor, mitochondrial (Atpif1) (NIH/3T3 lysate proteins [5]; [6]): 4
Ratio, Filamin-B (Flnb) (NIH/3T3 lysate proteins [5]; [6]): 36
Ratio, Filamin-C (Flnc) (NIH/3T3 lysate proteins [5]; [6]): 27
Ratio, Guanine nucleotide-binding protein subunit beta-2-like 1 (Gnb2l1) (NIH/3T3 lysate proteins [5]; [6]): 6
Ratio, Hsc70-interacting protein (St13) (NIH/3T3 lysate proteins [5]; [6]): 4
Ratio, Ribosome-recycling factor, mitochondrial (Mrrf) (NIH/3T3 lysate proteins [5]; [6]): 3
Ratio, Tropomyosin alpha-4 chain (Tpm4) (NIH/3T3 lysate proteins [5]; [6]): 4
Enrichment of proteins by probe, immunoblotting after pulldown (in words) (NIH/3T3 lysate proteins [5]; probe 8 compared with control probe 9, NIH/3T3 lysates): selective enrichment of RHOGDI1

— article PMC9313812, “The Pseudo‐Natural Product Rhonin Targets RHOGDI” (Angewandte Chemie (International Ed. in English), 2022)
